Assay results reported in patent US11261177B2, “Benzoxazinone derivatives useful as herbicides” (REDAG CROP PROTECTION LTD, priority 2017, dated 2022).

Assays:
[1] = system: Lolium perenne; assay: Post-emergence herbicidal assay, 96 cell trays, glasshouse; type: in vivo; conditions: 168 h, second trial (Table 2), Lollium, assessed 7 days after treatment, read-out: % control of plant growth; for pest or weed control at 200 g/ha: 0.2 kg/ha; for pest or weed control at 1000 g/ha: 1 kg/ha; for pest or weed control at 5000 g/ha: 5 kg/ha
Procedure: (§1) The compounds were screened at three concentrations (0.2, 1 and 5 kg/ha) against 2 weed species (Stellaria media—Chickweed and Lolium perenne). The seeds were sown in the cells of 96 cell trays (4-6 seeds per cell). For the pre-emergence assay, 75 μL of a suspension of the test compound, at the above doses, was added on top of the soil 1 day after sowing. For the post-emergence assay, the seedlings were sprayed with 200 μL of a suspension of the test compound two weeks after sowing. The formulation used is 25% acetone and 75% water/0.01% Tween 20. Each treatment was replicated three times. The plants were kept in a glasshouse (uncontrolled conditions) and assessed 7 days after treatment. A small number of compounds were tested in a first trial. A larger number of compounds were tested in a second trial. The assessment was based on the % control of plant growth in each cell.

[2] = system: Stellaria media—Chickweed; assay: as above; type: in vivo; conditions: 168 h, second trial (Table 2), assessed 7 days after treatment, read-out: % control of plant growth; for pest or weed control at 200 g/ha: 0.2 kg/ha; for pest or weed control at 1000 g/ha: 1 kg/ha; for pest or weed control at 5000 g/ha: 5 kg/ha
Procedure: as §1

SMILES	pest or weed control at 200 g/ha [1]	pest or weed control at 1000 g/ha [1]	pest or weed control at 5000 g/ha [1]	pest or weed control at 200 g/ha [2]	pest or weed control at 1000 g/ha [2]	pest or weed control at 5000 g/ha [2]
COC(=O)C(C)N1C(=O)C2(CC2)Oc2cc(F)c(/N=c3\sc(=O)n4n3CCCC4)cc21 (stereo not drawn) [Example 38]	20 to 80%	20 to 80%	80 to 100%	80 to 100%	80 to 100%	80 to 100%
C#CCN1C(=O)C2(CC2)Oc2cc(F)c(N3C(=O)C4COCCN4C3=O)cc21 (stereo not drawn) [Example 45, 2-(7-Fluoro-3-oxo-4-(prop-2-yn-1-yl)-3,4-dihydrospiro[benzo[b][1,4]oxazine-2,1′-cyclopropan]-6-yl)tetrahydro-1H-imidazo[5,1-c][1,4]oxazine-1,3(2H)-dione]	80 to 100%	80 to 100%	80 to 100%	80 to 100%	80 to 100%	80 to 100%
O=C1C2CC(O)CN2C(=O)N1c1cc2c(cc1F)OC1(CC1)C(=O)N2CC1CC1 (stereo not drawn) [Example 46]	< 20%	< 20%	< 20%	< 20%	< 20%	< 20%
O=C1C2COCCN2C(=O)N1c1cc2c(cc1F)OC1(CC1)C(=O)N2CC1CC1 (stereo not drawn) [Example 48]	< 20%	< 20%	20 to 80%	80 to 100%	80 to 100%	80 to 100%
COC(=O)C(C)N1C(=O)C2(CC2)Oc2cc(F)c(N3C(=O)C4COCCN4C3=O)cc21 (stereo not drawn) [Example 49]	< 20%	< 20%	< 20%	80 to 100%	80 to 100%	80 to 100%
N#CCN1C(=O)C2(CC2)Oc2cc(F)c(N3C(=O)C4COCCN4C3=O)cc21 (stereo not drawn) [Example 50]	< 20%	< 20%	< 20%	80 to 100%	80 to 100%	80 to 100%
CC(C)=CCN1C(=O)C2(CC2)Oc2cc(F)c(N3C(=O)C4COCCN4C3=O)cc21 (stereo not drawn) [Example 51]	< 20%	< 20%	< 20%	80 to 100%	80 to 100%	80 to 100%
O=C1C2CCCN2C(=O)N1c1cc2c(cc1F)OC1(CC1)C(=O)N2CC1CC1 (stereo not drawn) [Example 52]	< 20%	20 to 80%	20 to 80%	80 to 100%	80 to 100%	80 to 100%
